Source: patent EP2487171A1, “Dihydrobenzopyran, thiochroman, tetrahydroquinoleine and tetrahydronaphthalene derivatives and their use in anti-cancer therapy” (Université de Liège, priority 2011, dated 2012)

How the values were obtained:
[1] = test system: three Human Glioma Cell Lines; assay: MTT colorimetric assay, mean over the three glioma cell lines; format: cell-based; details: mean of the three human glioma cell lines, 72h (Table 2); read-out: Mean IC50 MTT values ± SEM (µM) Glioma - Human Brain cancer cells (I - 72h)
Method: (§1) Table 2: Bioselectivity determined by dividing the IC50 obtained with glioma cell lines by the IC50 obtained with normal astrocytes. Bioselectivity was determined only for those compounds whose mean + SEM values on the three human glioma cell lines were ≤ 20 µM.

[2] = test system: Astrocytes - Mouse normal brain cells; assay: MTT colorimetric assay on normal astrocytes (bioselectivity); format: cell-based
Method: as §1

[3] = test system: human U373 glioma cell line; assay: Quantitative videomicroscopy (computer-assisted phase-contrast microscopy); format: cell-based; details: U373 cells treated at the IC50 concentration from MTT, filmed for 72h; cytostatic versus cytotoxic effects
Description: In addition, the inventors could establish that the compounds of the invention act through a non-apoptosis-related mechanism thanks to a unique experimental approach used by the inventors, i.e. computer-assisted phase-contrast microscopy (quantitative videomicroscopy), making them good candidates as anti-cancer drugs for treating apoptosis-resistant tumor or cancer cells and for overcoming problems linked to the known anti-cancer drugs.
As the MTT test is based on the mitochondria functions, we also investigated the effects of the compounds according to the invention on cell proliferation, migration and morphology by means of a cellular imaging approach (Debeir et al., Cytometry 60:29-40, 2004; Debeir et al., IEEE Trans Med Imaging 24:697-711, 2005) in the human U373 glioma cell line, which is apoptosis-resistant but autophagy-sensitive (Lefranc F et al., Neurosurgery 2008).
Cellular imaging relied on the use of computer-assisted phase-contrast microscopy making possible to film the behaviour of living cells in culture dishes for several days.
Cells were seeded in a 25-cm^2 flask at a low density, treated or not with the compounds of the invention (at their IC50 concentration determined previously by MTT tests) and filmed thereafter for a period of 72h. The experiment was conducted in triplicate.
The behaviour of the cells, in terms of morphology, growth and death were thus investigated. The effect on the overall growth was measured by counting the number of cells on the first (0h) and the last image (72h) of each film. The global growth ratio (GGR) was then deduced by dividing the number of cells on the last image by the number of cells on the first image. The ratio GGRtreated cells / GGRcontrol cells, was further calculated thereby obtaining a value that describes the effect of compounds of the present invention on the overall cell growth.
The methodology is fully described and validated in Debeir et al., 2008, Exp Cell Res 314:2985-2998 and Mathieu et al., 2009, J Cell Mol Med, Feb 20, 2009.
Thanks to the quantitative videomicroscopy (QVM) approach, we classified the compounds into 4 distinctive classes on the basis of their cytostatic versus cytotoxic effects (Table 3). • Class I: actually cytostatic for 3 days (< 10 % of cell death at the 3rd day) • Class II: cytostatic but becomes cytotoxic with < 10% cell death on the 2nd day and > 20% of cell death on the 3rd day • Class III: cytostatic but rapidly becomes cytotoxic with < 10% cell death on the 1st day, > 20% of cell death on the 2nd day and > 50% of cell death on the 3rd day • Class IV: cytotoxic (> 50% of cell death on the first day)
In Fig. 1a, compounds of example 14 (5 µM), example 19 (20 µM) and example 23 (5 µM) belong to QVM Class I because they display cytostatic effects on human U373 GBM cells during the whole duration of the experiment. Cytostatic effects mean that < 10 % of cell death was recorded at the end of the experiment, i.e. at the end of the 3rd day. QVM analyses enable the global growth ratio (GGR) to be calculated in each experiment. The GGR index is obtained by dividing the number of cells in the last image by the number of cells in the first image of the experiment, knowing that 1080 images are taken during the 72 h-period of observation. The ratio GGR^treated cells / GGR^control cells was further calculated thereby obtaining a value that describes the effect of compounds on the overall cell growth. Thus, a GGR index of 0.2 means that they remain only 20% of treated cells compare to the control cells at the end of the experiment.

[4] = test system: Astrocytes - Mouse normal brain cells; assay: MTT colorimetric assay on normal astrocytes (bioselectivity); format: cell-based; details: Astrocyte, primocultures of astrocytes from newborn mice, 72h, read-out: Mean IC50 MTT values ± SEM (µM) Astrocytes - Mouse normal brain cells (II - 72h)
[5] = test system: Hs683; assay: MTT colorimetric assay, overall cell growth; format: cell-based; details: Homo sapiens, Hs 683; Hs683 cells, 72 hours of incubation; read-out: IC50 (µM) In Vitro Growth Inhibitory Concentrations (MTT Colorimetric Assay) Hs683
Method: (§2) The compounds and particularly dihydrobenzopyran, thiochroman, tetrahydroquinoleine and tetrahydronaphthalene derivatives of the invention were evaluated for their anti-proliferative effect (by means of the colorimetric MTT assay), in the following human glioblastoma cell-lines U373, T98G and Hs683 and in the mouse glioma cell line GL261. Normal brain cells (primocultures from newborn mice) were also used in order to determine the bioselectivity (B^N/C) of the compounds of interest, i.e. the ratio between the concentrations that inhibits 50% of the growth of brain cancer (C) cells (glioma cells) and the concentration that inhibits 50% of the growth of normal (N) brain cells (primocultures of astrocytes). The ideal situation to be reached is a bioselectivity of B^N/C > 10.
(§3) MTT tests were performed in order to rapidly, i.e. within 5 days, measure the effect of compounds of this invention on the overall cell growth. The test measured the number of metabolically active living cells that were able to transform the yellow product 3-(4,5-dimethylthiazol-2-yl)-2,5-diphenyl tetrazolium bromide (herein referred as MTT) into the blue product formazan dye by mitochondrial reduction. The amount of formazan obtained at the end of the experiment, measured by means of a spectrophotometer, is directly proportional to the number of living cells. Optical density determination thus enabled a quantitative measurement of the effect of the investigated compounds as compared to the control condition (untreated cells) and/or to other reference compounds.
(§4) Three human cancer cell lines were used in the following MTT tests.
(§5) To perform the assay, cells were allowed to grow in 96-well micro-wells with a flat bottom with an amount of 100 µl of cell suspension per well with 1,000 to 8,000 cells/well depending on the cell type used. Each cell line was seeded in its appropriate culture medium.
(§6) The detailed experimental procedure was the following: after a 24-hour period of incubation at 37°C, the culture medium was replaced by 100 µl of fresh medium in which the tested compound was previously dissolved, at the following molar concentrations: 10^-8 M, 5.10^-8 M, 10^-7 M, 5.10^-7 M, 10^-6 M, 5.10^-6 M, 10^-5 M, 5.10^-5 M and 10^-4 M. Each experiment was performed in sextuplicate (6 times).
(§7) After 72 hours of incubation at 37°C with (experimental conditions) or without (control condition) the compound to be tested, the medium was replaced by 100 µl MTT dissolved in RPMI (1640 without phenol red) at a concentration of 0.5 mg/ml. The micro-wells were subsequently incubated during 3 hours and a half at 37°C and centrifuged at 1300 rpm during 10 minutes. MTT was removed and formazan crystals formed were dissolved in 100 µl DMSO. The micro-wells were shaken for 5 minutes and read on a spectrophotometer at wavelengths of 570 nm (maximal formazan absorbance).
(§8) For each experimental condition, the mean optical density was calculated, allowing the determination of the percentage of remaining living cells in comparison to the control.

[6] = test system: T98G; assay: MTT colorimetric assay, overall cell growth; details: Homo sapiens, 72 h, read-out: IC50 (µM) In Vitro Growth Inhibitory Concentrations (MTT Colorimetric Assay) T98G;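 also: growth inhibition of the human glioblastoma line measured by MTT reduction to formazan, optical density read on a spectrophotometer at 570 nm, untreated cells as control, nine concentrations from 10 nM to 100 µM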
Method: The compounds and particularly dihydrobenzopyran, thiochroman, tetrahydroquinoleine and tetrahydronaphthalene derivatives of the invention were evaluated for their anti-proliferative effect (by means of the colorimetric MTT assay), in the following human glioblastoma cell-lines U373, T98G and Hs683 and in the mouse glioma cell line GL261. Normal brain cells (primocultures from newborn mice) were also used in order to determine the bioselectivity (B^N/C) of the compounds of interest, i.e. the ratio between the concentrations that inhibits 50% of the growth of brain cancer (C) cells (glioma cells) and the concentration that inhibits 50% of the growth of normal (N) brain cells (primocultures of astrocytes).
as §3, §4, §5, §6
The micro-wells were subsequently incubated during 3 hours and a half at 37°C and centrifuged at 1300 rpm during 10 minutes. MTT was removed and formazan crystals formed were dissolved in 100 µl DMSO. The micro-wells were shaken for 5 minutes and read on a spectrophotometer at wavelengths of 570 nm (maximal formazan absorbance).
as §8

[7] = test system: U373; assay: MTT colorimetric assay, overall cell growth; format: cell-based; details: Homo sapiens, U373 MG; U373 cells, 72 hours of incubation; read-out: IC50 (µM) In Vitro Growth Inhibitory Concentrations (MTT Colorimetric Assay) U373
Method: as §2, §3, §4, §5, §6, §7, §8

SMILES	IC50 [1] [µM]	Bioselectivity (I / II) [2]	QVM Class [3]	IC50 [4] [µM]	IC50 [5] [µM]	IC50 [6] [µM]	IC50 [7] [µM]
CC(C)(C)OC(=O)Nc1ccc2c(c1)C(NC(=O)Nc1cc(Cl)cc(Cl)c1)CC(C)(C)O2 (racemic) [Example 26, R/S-N-3,5-dichlorophenyl-N'-(6-tert-butoxycarbonylamino-3,4-dihydro-2,2-dimethyl-2H-1-benzopyran-4-yl)urea]	9 ± 2	< 5	II (Class II: cytostatic but becomes cytotoxic with < 10% cell death on the 2nd day and > 20% of cell death on the 3rd day)	~40	9	12	6
CC(C)(C)OC(=O)Nc1ccc2c(c1)C(NC(=O)Nc1ccc(C#N)cc1)CC(C)(C)O2 (racemic) [Example 15, R/S-N-4-cyanophenyl-N'-(6-tert-butoxycarbonylamino-3,4-dihydro-2,2-dimethyl-2H-1-benzopyran-4-yl)urea]	18 ± 5	>10	I (Class I: actually cytostatic for 3 days (< 10 % of cell death at the 3rd day))	> 200	18	26	10
CC(C)(C)OC(=O)Nc1ccc2c(c1)C(NC(=O)Nc1cccc(C#N)c1)CC(C)(C)O2 (racemic) [Example 14, R/S-N-3-cyanophenyl-N'-(6-tert-butoxycarbonylamino-3,4-dihydro-2,2-dimethyl-2H-1-benzopyran-4-yl)urea]	2 ± 1	> 10	I (Class I: actually cytostatic for 3 days (< 10 % of cell death at the 3rd day))	> 20	2	3	2
CC(C)(C)OC(=O)Nc1ccc2c(c1)C(NC(=O)Nc1cc(F)cc(F)c1)CC(C)(C)O2 (racemic) [Example 21, R/S-N-3,5-difluorophenyl-N'-(6-tert-butoxycarbonylamino-3,4-dihydro-2,2-dimethyl-2H-1-benzopyran-4-yl)urea]	9 ± 3	∼ 5	I (Class I: actually cytostatic for 3 days (< 10 % of cell death at the 3rd day))	~45	7	14	6
CC(C)(C)OC(=O)Nc1ccc2c(c1)C(NC(=O)Nc1ccc(Cl)cc1C(F)(F)F)CC(C)(C)O2 (racemic) [Example 37, R/S-N-4-chloro-2-trifluoromethylphenyl-N'-(6-tert-butoxycarbonylamino-3,4-dihydro-2,2-dimethyl-2H-1-benzopyran-4-yl)urea]			II (Class II: cytostatic but becomes cytotoxic with < 10% cell death on the 2nd day and > 20% of cell death on the 3rd day)		30	38	34
CC(C)(C)OC(=O)Nc1ccc2c(c1)C(NC(=O)Nc1ccc(C(F)(F)F)cc1)CC(C)(C)O2 (racemic) [Example 24, R/S-N-4-trifluoromethylphenyl-N'-(6-tert-butoxycarbonylamino-3,4-dihydro-2,2-dimethyl-2H-1-benzopyran-4-yl)urea]	12 ± 1	> 10	I (Class I: actually cytostatic for 3 days (< 10 % of cell death at the 3rd day))	> 120	11	15	10
CC(C)(C)OC(=O)Nc1ccc2c(c1)C(NC(=O)Nc1cccc(Cl)c1)CC(C)(C)O2 (racemic) [Example 16, R/S-N-3-chlorophenyl-N'-(6-tert-butoxycarbonylamino-3,4-dihydro-2,2-dimethyl-2H-1-benzopyran-4-yl)urea]	17 ± 3	>12	III (Class III: cytostatic but rapidly becomes cytotoxic with < 10% cell death on the 1st day, > 20% of cell death on the 2nd day and > 50% of cell death on the 3rd day)	> 200	12	20	18
CC(C)(C)OC(=O)Nc1ccc2c(c1)C(NC(=O)Nc1cccc([N+](=O)[O-])c1)CC(C)(C)O2 (racemic) [Example 23, R/S-N-3-nitrophenyl-N'-(6-tert-butoxycarbonylamino-3,4-dihydro-2,2-dimethyl-2H-1-benzopyran-4-yl)urea]	8 ± 4	< 5	I (Class I: actually cytostatic for 3 days (< 10 % of cell death at the 3rd day))	< 40	16	7	1
CC(C)(C)OC(=O)Nc1ccc2c(c1)C(NC(=O)Nc1cc(C(F)(F)F)ccc1Cl)CC(C)(C)O2 (racemic) [Example 31, R/S-N-2-chloro-5-trifluoromethylphenyl-N'-(6-tert-butoxycarbonylamino-3,4-dihydro-2,2-dimethyl-2H-1-benzopyran-4-yl)urea]			II (Class II: cytostatic but becomes cytotoxic with < 10% cell death on the 2nd day and > 20% of cell death on the 3rd day)		12	38	15
CC(C)(C)OC(=O)Nc1ccc2c(c1)C(NC(=O)Nc1cccc(C(F)(F)F)c1)CC(C)(C)O2 (racemic) [Example 25, R/S-N-3-trifluoromethylphenyl-N'-(6-tert-butoxycarbonylamino-3,4-dihydro-2,2-dimethyl-2H-1-benzopyran-4-yl)urea]	13 ± 4	< 2	II (Class II: cytostatic but becomes cytotoxic with < 10% cell death on the 2nd day and > 20% of cell death on the 3rd day)	~20	8	21	9
CC(C)(C)OC(=O)Nc1ccc2c(c1)C(NC(=O)Nc1ccccc1[N+](=O)[O-])CC(C)(C)O2 (racemic) [Example 27, R/S-N-2-nitrophenyl-N'-(6-tert-butoxycarbonylamino-3,4-dihydro-2,2-dimethyl-2H-1-benzopyran-4-yl)urea]			I (Class I: actually cytostatic for 3 days (< 10 % of cell death at the 3rd day))		13	22	12
CC(C)(C)OC(=O)Nc1ccc2c(c1)C(NC(=O)Nc1cc(C(F)(F)F)cc(C(F)(F)F)c1)CC(C)(C)O2 (racemic) [Example 29, R/S-N-3,5-di(trifluoromethyl)phenyl-N'-(6-tert-butoxycarbonylamino-3,4-dihydro-2,2-dimethyl-2H-1-benzopyran-4-yl)urea]	4 ± 1	∼ 5	I (Class I: actually cytostatic for 3 days (< 10 % of cell death at the 3rd day))	~20	3	5	4
